From patent US20130190223A1, “NONIMMUNOSUPPRESSIVE CYCLOSPORINE ANALOGUE MOLECULES” (ISOTECHNIKA PHARMA INC., priority 2008, published 2013)
Like-named read-outs stand apart in the source and are kept apart here.

Columns and labels:
[1] = system: human lymphocytes; assay: Immunosuppressive potency: inhibition of proliferation of anti-CD3 stimulated human lymphocytes (CFSE, flow cytometry); format: cell-based; conditions: relative potency: IC50 for inhibition of cell division normalized to CsA, 3 days incubation
Protocol: The immunosuppressive potency of test compounds was assessed by measuring their ability to inhibit the proliferation of human lymphocytes in cell culture. Lymphocytes were isolated from blood of normal human volunteers by Ficoll-gradient centrifugation and stained with 2 μg/ml carboxyfluoroscein diacetate succinimydyl ester (CFSE), a fluorescent cell division tracer molecule. Cells were stimulated through the CD3/T-cell receptor by seeding cells at 300,000/well into 96-well flat-bottom, high-binding plates coated with 1 μg/ml UCHT-1 anti-human CD3 antibody. Test compounds were prepared first as 10 mg/ml stock solutions in dimethylsulfoxide (DMSO). Test solutions were prepared by 500-fold dilution of the DMSO stock solutions, then 3-fold serial dilutions in cell culture medium (RPMI+5% FBS+penicillin-steptomycin) for a total of 7 concentrations per compound. Test solutions were added in equal volume to the culture wells containing cells to achieve final concentrations after dilution of 13.7 ng/ml-10,000 ng/ml. […] Following 3 days incubation cells were stained with CD95-APC (lymphocyte activation marker) and analyzed by flow cytometry with a Becton Dickinson FACSCalibur. Percentage cell division was assessed in forward/side-scatter-gated lymphocytes by measuring the proportion of cells that underwent one or more cell divisions as determined by serial halving of CFSE intensity. The nondivided parent population was determined from samples maintained in culture without anti-CD3 stimulation. IC50 values for inhibition of cell division were determined by nonlinear regression analysis. […]

[2] = molecular target: T1, CyP-D (Rattus norvegicus, UniProt P29117); format: biochemical; conditions: mitochondria isolated from rat liver, 190 μM calcium, swelling as decline in A540
T1 construct: Mitochondria were isolated from fresh rat liver; from tissue; host or cells: rat liver mitochondria
Source text: A mitochondria swelling assay was used to measure the efficacy of NICAMs in blocking CyP-D and mitochondrial permeability transition. Under certain pathological conditions, mitochondria lose the ability to regulate calcium levels, and excessive calcium accumulation in the mitochondrial matrix results in the opening of large pores in the inner mitochondrial membrane. Nonselective conductance of ions and molecules up to 1.5 kilodaltons through the pore, a process called mitochondrial permeability transition, leads to swelling of mitochondria and other events which culminate in cell death. […] In general, mitochondria isolated from rat liver were exposed to calcium to induce MPTP opening in the absence or presence of test compounds, and calcium-induced swelling was measured as a reduction in light absorbance at 540 nm.
Mitochondria were isolated from fresh rat liver. Ice-cold or 4° C. conditions were used throughout all steps of the isolation. The liver was rinsed thoroughly and chopped in a small volume of isolation buffer (IB; 10 mM Hepes, 70 mM sucrose, 210 mM mannitol, 0.5 mM EDTA). Aliquots of the minced liver were homogenized in IB using a Teflon-glass Potter-Elvehjem tissue grinder and passed through a cell screen filter. The filtered homogenate was centrifuged at 600 g for 10 min, then the resulting supernatant centrifuged at 7000 g for 10 min. The supernatant was discarded, and the pellet resuspended in wash buffer (10 mM Hepes, 70 mM sucrose, 210 mM mannitol) and centrifuged a final time at 7000 g for 10 min. The supernatant was discarded, and the mitochondria-containing pellet suspended and stored on ice in 2 mL of respiration buffer (RB; 5 mM Hepes, 70 mM sucrose, 210 mM mannitol, 10 mM sodium succinate, 1 mM sodium phosphate dibasic).
Test compound solutions were prepared from 10 mg/ml stocks (dimethyl sulfoxide vehicle) first by diluting the test compound 1000× into respiration buffer #2 (RB2; 5 mM Hepes, 70 mM sucrose, 210 mM mannitol, 10 mM sodium succinate, 1 mM sodium phosphate dibasic, 1% fetal bovine serum, 2 μM rotenone), then by 3×-serial dilutions in RB2 to achieve test compound concentrations of 10000, 3333, 1111, 370, 123, 41, and 14 ng/mL. Polystyrene tubes and plates were used for all preparations.
Swelling assays were completed in a 96-well flat-bottom polystyrene plates. In each well a 10-μL aliquot of mitochondria suspension, equivalent to 100-200 μg total protein, was combined with 90 μL of test compound, incubated for 10 min, then the baseline absorbance measured on a plate reader (540 nm wavelength; A540). Swelling was induced by adding 5 μL of 4 mM calcium chloride to achieve a final calcium concentration of 190 μM. Mitochondria swelling was indicated by a decline in A540. […] Duplicate samples were assayed for each test compound concentration.
Means and ranges of duplicate samples are shown.

[3] = system: calcineurin; conditions: literature statement; cited from earlier work
[4] = molecular target: CyP-A (Homo sapiens, UniProt P62937); conditions: cited from earlier work
CyP-A, sequence (P62937 whole entry): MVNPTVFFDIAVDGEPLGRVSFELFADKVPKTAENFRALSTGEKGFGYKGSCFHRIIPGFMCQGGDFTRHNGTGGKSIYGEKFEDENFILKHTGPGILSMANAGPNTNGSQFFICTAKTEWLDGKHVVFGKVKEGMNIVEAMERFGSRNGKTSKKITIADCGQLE

T1 sequence (P29117 30-206): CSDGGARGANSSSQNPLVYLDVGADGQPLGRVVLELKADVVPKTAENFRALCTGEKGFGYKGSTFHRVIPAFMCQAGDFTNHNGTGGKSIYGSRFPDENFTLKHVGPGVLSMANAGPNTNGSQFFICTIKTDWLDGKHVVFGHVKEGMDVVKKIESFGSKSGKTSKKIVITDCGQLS

SMILES | Immunosuppression (% Relative to CsA) [1] [%] | CYP-D Inhibition (% Potency Vs CsA) [2] [%] | immunosuppressive activity [3] | binding affinity for CyP-A [4] | binding affinity for CyP-A ([4]; literature statement)
CCC1NC(=O)C(C(O)C(C)CC=CCCCCCCCCCC(=O)N(C)C)N(C)C(=O)C(C(C)C)N(C)C(=O)C(CC(C)C)N(C)C(=O)C(CC(C)C)N(C)C(=O)C(C)NC(=O)C(C)NC(=O)C(CC(C)C)N(C)C(=O)C(C(C)C)NC(=O)C(CC(C)C)N(C)C(=O)CN(C)C1=O (stereo not shown) [Compound 420-104] | 11 | 55.8 | – | – | –
CCC1NC(=O)C(C(O)C(C)CCCCCCCCO)N(C)C(=O)C(C(C)C)N(C)C(=O)C(CC(C)C)N(C)C(=O)C(CC(C)C)N(C)C(=O)C(C)NC(=O)C(C)NC(=O)C(CC(C)C)N(C)C(=O)C(C(C)C)NC(=O)C(CC(C)C)N(C)C(=O)CN(C)C1=O (stereo not shown) [Compound 420-112] | 2 | 106.7 | – | – | –
CCOC(=O)CCCCCCC=CCC(C)C(O)C1C(=O)NC(CC)C(=O)N(C)CC(=O)N(C)C(CC(C)C)C(=O)NC(C(C)C)C(=O)N(C)C(CC(C)C)C(=O)NC(C)C(=O)NC(C)C(=O)N(C)C(CC(C)C)C(=O)N(C)C(CC(C)C)C(=O)N(C)C(C(C)C)C(=O)N1C (stereo not shown) [Compound 420-113] | <1 | 33.2 | – | – | –
CCC1NC(=O)C(C(O)C(C)CC=CCCCCCCC(=O)N(C)C)N(C)C(=O)C(C(C)C)N(C)C(=O)C(CC(C)C)N(C)C(=O)C(CC(C)C)N(C)C(=O)C(C)NC(=O)C(C)NC(=O)C(CC(C)C)N(C)C(=O)C(C(C)C)NC(=O)C(CC(C)C)N(C)C(=O)CN(C)C1=O (stereo not shown) [Compound 420-114] | <1 | 63.4 | – | – | –
CCC1NC(=O)C(C(O)C(C)CC=CCCCCCCNC(=O)OC(C)(C)C)N(C)C(=O)C(C(C)C)N(C)C(=O)C(CC(C)C)N(C)C(=O)C(CC(C)C)N(C)C(=O)C(C)NC(=O)C(C)NC(=O)C(CC(C)C)N(C)C(=O)C(C(C)C)NC(=O)C(CC(C)C)N(C)C(=O)CN(C)C1=O (stereo not shown) [Compound 420-120] | 3 | 9.4 | – | – | –
C/C=C/C[C@@H](C)[C@@H](O)[C@H]1C(=O)N[C@@H](CC)C(=O)N(C)[C@H](C)C(=O)N(CC)[C@@H](C(C)C)C(=O)N[C@@H](C(C)C)C(=O)N(C)[C@@H](CC(C)C)C(=O)N[C@@H](C)C(=O)N[C@H](C)C(=O)N(C)[C@@H](CC(C)C)C(=O)N(C)[C@@H](CC(C)C)C(=O)N(C)[C@@H](C(C)C)C(=O)N1C [DEBIO 025, MeAla^3EtVal^4-Cyclosporin] | – | – | no immunosuppressive activity | retains binding affinity for CyP-A | –
C/C=C/C[C@@H](C)[C@@H](O)[C@H]1C(=O)N[C@@H](CC)C(=O)N(C)CC(=O)N(C)[C@@H]([C@@H](C)CC)C(=O)N[C@@H](C(C)C)C(=O)N(C)[C@@H](CC(C)C)C(=O)N[C@@H](C)C(=O)N[C@H](C)C(=O)N(C)[C@@H](CC(C)C)C(=O)N(C)[C@@H](CC(C)C)C(=O)N(C)[C@@H](C(C)C)C(=O)N1C [NIM 811, Melle^4-cyclosporine] | – | – | no immunosuppressive activity | – | retains binding affinity for CyP-A
C/C=C/C[C@@H](C)[C@@H](O)[C@H]1C(=O)N[C@@H](CC)C(=O)N(C)[C@H](SCCN(C)C)C(=O)N(C)[C@@H](CC(C)(C)O)C(=O)N[C@@H](C(C)C)C(=O)N(C)[C@@H](CC(C)C)C(=O)N[C@@H](C)C(=O)N[C@H](C)C(=O)N(C)[C@@H](CC(C)C)C(=O)N(C)[C@@H](CC(C)C)C(=O)N(C)[C@@H](C(C)C)C(=O)N1C [SCY-635, DimethylaminoethylthioSar^3-hydroxyLeu^4-Cyclosporin] | – | – | no immunosuppressive activity | retains binding affinity for CyP-A | –
